One assay deals with isolated aortas. Description: Atomic force microscopy of aortic endothelial stiffness in treated db/db mice. The format is in vivo. Conditions: 5 mg twice a day via inhalation for 5 days, vs vehicle. An excerpt:
(§1) Data represent mean+/−SEM, *P<0.05, determined by two-tailed Student t test.

The test system of assay [1] is femoral arteries. Description: Flow mediated dilation in isolated femoral arteries from treated db/db mice. The format is in vivo. As to conditions: 5 mg twice a day via inhalation for 5 days, vs placebo control; increasing shear stress. An excerpt: Vessels were pre-constricted with phenylephrine and exposed to increasing shear stress (dynes/cm^2) to assess flow mediated dilation. […] Data represent mean+/−SEM, *P<0.05, determined by two-tailed Student t test.

Assay [2] deals with femoral arteries. Description: Vasodilation of pre-constricted femoral arteries from treated db/db mice to insulin, acetylcholine or sodium nitroprusside. The format is in vivo. As to conditions: 5 mg twice a day via inhalation for 5 days, vs vehicle cohort.
Excerpt: In a separate set of experiments, vessels were pre-constricted and exposed to increasing concentrations of insulin (FIG. 8C) or endothelium-dependent vasodilator, acetylcholine (FIG. 8D). […] Data represent mean+/−SEM, *P<0.05, determined by two-tailed Student t test.
as §1

The test system of the next assay is human endothelial cells. Description: Wheat Germ Agglutinin (WGA) staining of the glycocalyx of cultured human endothelial cells. Type of assay: cell-based. Conditions: neuraminidase plus Zanamivir for 1 hour.
A further assay has as its system glycocalyx. As to conditions: patients with familial hypercholesterolemia, short term treatment; cited from earlier work.

In the case of `CC(=O)NC1C(NC(=N)N)C=C(C(=O)O)OC1C(O)C(O)CO` (stereo not shown) [Zanamivir, 5-acetamido-4-guanidino-6-(1,2,3-trihydroxypropyl)-5,6-dihydro-4H-pyran-2-carboxylic acid], in the assay with isolated aortas, the aortic endothelial stiffness entry is on record as “significant reduction”. In addition, in the assay with femoral arteries [1], the flow mediated dilation result is recorded as “significantly improved”. Further, in the assay with femoral arteries [2] (increasing concentrations of acetylcholine), the “endothelial dependent vasodilatory response to acetylcholine” value was “greater”. Moreover, in the assay on femoral arteries [2] (increasing concentrations of insulin), the “endothelial dependent vasodilatory response to insulin” value was “greater”. Besides, the “effect on the neuraminidase-induced reduction in WGA staining” value in the assay with human endothelial cells was “attenuated”.
Take `CC(C)c1nc(N(C)S(C)(=O)=O)nc(-c2ccc(F)cc2)c1/C=C/[C@@H](O)C[C@@H](O)CC(=O)O` [Rosuvastatin]: in the assay with glycocalyx, the glycocalyx volume result is reported as “partially restored glycocalyx volume” and the plasma hyaluronidase activity entry is listed as “increase in plasma hyaluronidase activity”.

The values above are taken from patent US11684603B2, “Neuraminidase inhibition to improve glycocalyx volume and function to ameliorate cardiovascular diseases in pathologies associated with glycocalyx damage” (priority 2017, dated 2023).
